Measurements: the supplement of paper PMC4862054

These molecules were tested on BT-549 (assay: normalised response (% of control), CellTiter-Glo; higher = more viable cells (100 = DMSO, 0 = benzethonium chloride kill control)). Conditions: incubation time: 72 h.
How it was run: (§1)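 A 20 µl suspension of breast cancer cells was seeded into each well of 384-well plates containing compound at 5 concentrations in 10-fold steps over a compound-specific 10,000-fold range. After 72 h incubation, CellTox Green fluorescence (485/520 nm) was read first, and CellTiter-Glo luminescence was read after 10 min at room temperature. Each plate was normalised against 0.1 % DMSO (100) and a positive kill control (0), and each value is the normalised signal at one concentration.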
Molecule `NC1(c2ccc(-c3nc4ccn5c(=O)[nH]nc5c4cc3-c3ccccc3)cc2)CCC1` [MK-2206] (1 nM) has a normalised response of 92.9%.
In the case of `NC(=O)c1cccc2cn(-c3ccc([C@@H]4CCCNC4)cc3)nc12` [MK-4827] (10 nM), the normalised response is reported as 101%.
`N[C@@H](Cc1ccc(N(CCCl)CCCl)cc1)C(=O)O` [Melphalan] (1.25 nM) showed a normalised response of 97.8%.
`N[C@@H](Cc1ccc(N(CCCl)CCCl)cc1)C(=O)O` [Melphalan] (12.5 nM) showed a normalised response of 100%.
`O=C(c1cc(Cc2n[nH]c(=O)c3ccccc23)ccc1F)N1CCN(C(=O)C2CC2)CC1` [Olaparib] (10 nM) showed a normalised response of 98.2%.

What follows are molecules tested on MDA-MB-231 in the same assay as above. Conditions: incubation time: 72 h.
How it was run: as §1
Molecule `Cc1c(C(=O)Nc2ccc(N3C[C@@H](C)O[C@@H](C)C3)nc2)cccc1-c1ccc(OC(F)(F)F)cc1` [Erismodegib] (1 nM) has a normalised response of 99%.
`Cc1c(C(=O)Nc2ccc(N3C[C@@H](C)O[C@@H](C)C3)nc2)cccc1-c1ccc(OC(F)(F)F)cc1` [Erismodegib] (10 nM) gave a normalised response of 99.2%.
Molecule `CC(C)C(=O)Nc1ccc([N+](=O)[O-])c(C(F)(F)F)c1` [Flutamide] (10 nM) has a normalised response of 95.7%.
With `COc1cc2c(Oc3ccc(NC(=O)C4(C(=O)Nc5ccc(F)cc5)CC4)cc3F)ccnc2cc1OCCCN1CCOCC1` [Foretinib] (1 nM) the normalised response was 99%.
Molecule `COc1cc(Nc2ncc(F)c(Nc3ccc4c(n3)N(COP(=O)(O)O)C(=O)C(C)(C)O4)n2)cc(OC)c1OC` [Fostamatinib] (0.25 nM) has a normalised response of 101%.
With `COc1cc(Nc2ncc(F)c(Nc3ccc4c(n3)N(COP(=O)(O)O)C(=O)C(C)(C)O4)n2)cc(OC)c1OC` [Fostamatinib] (2.5 nM) the normalised response was 96.2%.
For `CC(C)NC[C@@H](C(=O)N1CCN(c2ncnc3c2[C@H](C)C[C@H]3O)CC1)c1ccc(Cl)cc1` [GDC-0068] (1 nM), the normalised response was 103%.
With `CCCc1cc(C)[nH]c(=O)c1CNC(=O)c1cc(-c2ccnc(N3CCN(C)CC3)c2)cc2c1cnn2C(C)C` [GSK343] (1 nM) the normalised response was 92.5%.
For `CCCc1cc(C)[nH]c(=O)c1CNC(=O)c1cc(-c2ccnc(N3CCN(C)CC3)c2)cc2c1cnn2C(C)C` [GSK343] (10 nM), the normalised response was 91.7%.
Work on `NC(=O)NO` [Hydroxyurea] (100 nM) yielded a normalised response of 98.5%.
In the case of `COc1cc2c(cc1-c1c(C)noc1C)ncc1[nH]c(=O)n([C@H](C)c3ccccn3)c12` [I-BET151] (1 nM), the normalised response is reported as 99.5%.
`CC(C)n1nc(-c2ccc3oc(N)nc3c2)c2c(N)ncnc21` [INK128] (0.1 nM) gave a normalised response of 92.1%.
With `CC(C)n1nc(-c2ccc3oc(N)nc3c2)c2c(N)ncnc21` [INK128] (1 nM) the normalised response was 95.9%.
In the case of `O=NN(CCCl)C(=O)NC1CCCCC1` [Lomustine] (10 nM), the normalised response is reported as 99.4%.
In the case of `O=C(O)CC[C@H]1CC[C@@](c2cc(F)ccc2F)(S(=O)(=O)c2ccc(Cl)cc2)CC1` [MK-0752] (1 nM), the normalised response is reported as 102%.
Molecule `NC1(c2ccc(-c3nc4ccn5c(=O)[nH]nc5c4cc3-c3ccccc3)cc2)CCC1` [MK-2206] (1 nM) has a normalised response of 103%.
Molecule `NC(=O)c1cccc2cn(-c3ccc([C@@H]4CCCNC4)cc3)nc12` [MK-4827] (10 nM) has a normalised response of 101%.
With `N[C@@H](Cc1ccc(N(CCCl)CCCl)cc1)C(=O)O` [Melphalan] (1.25 nM) the normalised response was 100%.
`N[C@@H](Cc1ccc(N(CCCl)CCCl)cc1)C(=O)O` [Melphalan] (12.5 nM) was tested, and the normalised response was 102%.
`O=C(c1cc(Cc2n[nH]c(=O)c3ccccc23)ccc1F)N1CCN(C(=O)C2CC2)CC1` [Olaparib] (10 nM) was tested, and the normalised response was 90.2%.

These molecules were tested on CAL-51 in the same assay as above. Conditions: incubation time: 72 h.
How it was run: as §1
`Cc1c(C(=O)Nc2ccc(N3C[C@@H](C)O[C@@H](C)C3)nc2)cccc1-c1ccc(OC(F)(F)F)cc1` [Erismodegib] (1 nM) was tested, and the normalised response was 88.2%.
`Cc1c(C(=O)Nc2ccc(N3C[C@@H](C)O[C@@H](C)C3)nc2)cccc1-c1ccc(OC(F)(F)F)cc1` [Erismodegib] (10 nM) gave a normalised response of 127%.
Molecule `CC(C)C(=O)Nc1ccc([N+](=O)[O-])c(C(F)(F)F)c1` [Flutamide] (10 nM) has a normalised response of 126%.
`COc1cc2c(Oc3ccc(NC(=O)C4(C(=O)Nc5ccc(F)cc5)CC4)cc3F)ccnc2cc1OCCCN1CCOCC1` [Foretinib] (1 nM) gave a normalised response of 106%.
`COc1cc(Nc2ncc(F)c(Nc3ccc4c(n3)N(COP(=O)(O)O)C(=O)C(C)(C)O4)n2)cc(OC)c1OC` [Fostamatinib] (0.25 nM) was tested, and the normalised response was 83.5%.
`COc1cc(Nc2ncc(F)c(Nc3ccc4c(n3)N(COP(=O)(O)O)C(=O)C(C)(C)O4)n2)cc(OC)c1OC` [Fostamatinib] (2.5 nM) was tested, and the normalised response was 73.5%.
Molecule `CC(C)NC[C@@H](C(=O)N1CCN(c2ncnc3c2[C@H](C)C[C@H]3O)CC1)c1ccc(Cl)cc1` [GDC-0068] (1 nM) has a normalised response of 71%.
Molecule `CCCc1cc(C)[nH]c(=O)c1CNC(=O)c1cc(-c2ccnc(N3CCN(C)CC3)c2)cc2c1cnn2C(C)C` [GSK343] (1 nM) has a normalised response of 116%.
Work on `CCCc1cc(C)[nH]c(=O)c1CNC(=O)c1cc(-c2ccnc(N3CCN(C)CC3)c2)cc2c1cnn2C(C)C` [GSK343] (10 nM) yielded a normalised response of 81.4%.
`NC(=O)NO` [Hydroxyurea] (100 nM) was tested, and the normalised response was 89.7%.
Molecule `COc1cc2c(cc1-c1c(C)noc1C)ncc1[nH]c(=O)n([C@H](C)c3ccccn3)c12` [I-BET151] (1 nM) has a normalised response of 81.1%.
For `CC(C)n1nc(-c2ccc3oc(N)nc3c2)c2c(N)ncnc21` [INK128] (0.1 nM), the normalised response was 106%.
Molecule `CC(C)n1nc(-c2ccc3oc(N)nc3c2)c2c(N)ncnc21` [INK128] (1 nM) has a normalised response of 116%.
Molecule `O=NN(CCCl)C(=O)NC1CCCCC1` [Lomustine] (10 nM) has a normalised response of 120%.
Work on `O=C(O)CC[C@H]1CC[C@@](c2cc(F)ccc2F)(S(=O)(=O)c2ccc(Cl)cc2)CC1` [MK-0752] (1 nM) yielded a normalised response of 87.3%.
`NC1(c2ccc(-c3nc4ccn5c(=O)[nH]nc5c4cc3-c3ccccc3)cc2)CCC1` [MK-2206] (1 nM) was tested, and the normalised response was 80.6%.
`NC(=O)c1cccc2cn(-c3ccc([C@@H]4CCCNC4)cc3)nc12` [MK-4827] (10 nM) showed a normalised response of 125%.
For `N[C@@H](Cc1ccc(N(CCCl)CCCl)cc1)C(=O)O` [Melphalan] (1.25 nM), the normalised response was 114%.
For `N[C@@H](Cc1ccc(N(CCCl)CCCl)cc1)C(=O)O` [Melphalan] (12.5 nM), the normalised response was 75.2%.
`O=C(c1cc(Cc2n[nH]c(=O)c3ccccc23)ccc1F)N1CCN(C(=O)C2CC2)CC1` [Olaparib] (10 nM) gave a normalised response of 110%.

What follows are molecules tested on MDA-MB-468 in the same assay as above. Conditions: incubation time: 72 h.
How it was run: as §1
Work on `Cc1c(C(=O)Nc2ccc(N3C[C@@H](C)O[C@@H](C)C3)nc2)cccc1-c1ccc(OC(F)(F)F)cc1` [Erismodegib] (1 nM) yielded a normalised response of 99.8%.
In the case of `Cc1c(C(=O)Nc2ccc(N3C[C@@H](C)O[C@@H](C)C3)nc2)cccc1-c1ccc(OC(F)(F)F)cc1` [Erismodegib] (10 nM), the normalised response is reported as 86.6%.
